Results as given in PMC9007462 (Journal of Medicinal Chemistry, 2022).

Columns and labels:
[1] = test system: patient-derived primary prostate tumor epithelial cells; conditions: other primary samples analyzed in the authors' laboratory; cited from earlier work
Human ALDH1A3 [2] = biological target: T1, Human ALDH1A3 (Homo sapiens, UniProt P47895); experiment: ALDH1A3 inhibition, IC50, Ki and type of inhibition; type: biochemical; conditions: 6 μM hexanal as substrate; mean ± SE
T1 construct: made in house
T1 sequence (P47895 1-512): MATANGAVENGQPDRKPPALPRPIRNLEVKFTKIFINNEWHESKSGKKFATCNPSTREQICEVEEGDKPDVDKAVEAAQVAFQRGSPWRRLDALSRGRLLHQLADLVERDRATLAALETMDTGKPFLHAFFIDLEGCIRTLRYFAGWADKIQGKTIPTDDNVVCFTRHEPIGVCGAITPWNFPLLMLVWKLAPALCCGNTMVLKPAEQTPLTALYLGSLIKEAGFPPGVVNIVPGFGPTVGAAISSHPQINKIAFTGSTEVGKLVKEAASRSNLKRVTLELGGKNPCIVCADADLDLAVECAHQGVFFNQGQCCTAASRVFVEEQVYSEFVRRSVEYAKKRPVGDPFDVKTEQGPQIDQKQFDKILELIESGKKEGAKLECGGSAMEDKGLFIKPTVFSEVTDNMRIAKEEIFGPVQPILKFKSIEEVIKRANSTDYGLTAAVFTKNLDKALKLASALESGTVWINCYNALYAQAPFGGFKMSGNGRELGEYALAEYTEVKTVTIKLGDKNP
Protocol: Human ALDH1A1, ALDH1A3, and ALDH3A1 were cloned and recombinantly expressed from the pET-30 Xa/LIC vector. Protein purification was achieved by affinity chromatography on a nickel-charged chelating Sepharose Fast Flow 5-mL column (His Trap column, Cytiva), which specifically binds the protein due to its N-terminal (His)6 tag, using an ÄKTA FPLC system (Cytiva), as previously described.[55] Enzymes including the His tag were stored at −80 °C in 20 mM Tris/HCl and 0.5 M NaCl, pH 8.0, until use. Reaction buffers were as follows: ALDH1A1 was assayed in 50 mM HEPES, 0.5 mM EDTA, and 0.5 mM DTT, pH 8.0; […] Activity under standard conditions was measured fluorimetrically at 25 °C using a Cary Eclipse (Varian) fluorimeter to follow the purification procedure and to check the enzyme concentration before each kinetic experiment. […] In order to determine the IC50 values, reaction rates were determined at various concentrations of inhibitor at a fixed concentration of substrate. […] Values are expressed as the mean ± SE. […] The data of enzymatic activities at different inhibitor concentrations were fitted to the Michaelis–Menten equation to determine the values of Km and Vmax. Next, results were fitted to the equations for competitive, given by [drawing 3]; noncompetitive, given by [drawing 4]; uncompetitive, given by [drawing 5]; and mixed, given by [drawing 6] .[56] The type of inhibition was selected based on the lowest error value. Parameters were expressed as the mean ± SE.

Human ALDH1A1 = biological target: T2, Human ALDH1A1 (Homo sapiens, UniProt P00352); experiment: DEAB analogues as substrates of ALDH1A1; type: biochemical; conditions: 10 μM compound as substrate, relative to activity with 10 μM hexanal (Figure S2)
T2 construct: made in house
T2 sequence (P00352 1-501): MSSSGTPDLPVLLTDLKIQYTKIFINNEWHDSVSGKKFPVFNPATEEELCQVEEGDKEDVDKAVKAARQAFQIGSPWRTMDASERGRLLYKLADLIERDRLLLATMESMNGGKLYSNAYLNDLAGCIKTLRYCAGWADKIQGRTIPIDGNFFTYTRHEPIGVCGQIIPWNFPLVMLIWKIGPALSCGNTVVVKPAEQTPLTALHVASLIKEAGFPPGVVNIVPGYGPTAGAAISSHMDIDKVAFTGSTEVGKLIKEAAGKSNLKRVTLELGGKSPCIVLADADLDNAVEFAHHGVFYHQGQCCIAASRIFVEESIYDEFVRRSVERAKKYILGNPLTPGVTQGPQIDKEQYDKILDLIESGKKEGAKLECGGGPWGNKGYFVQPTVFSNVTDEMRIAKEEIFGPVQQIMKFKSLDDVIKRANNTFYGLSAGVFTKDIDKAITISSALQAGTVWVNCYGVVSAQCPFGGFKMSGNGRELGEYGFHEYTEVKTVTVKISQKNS
Protocol: (§1) Human ALDH1A1, ALDH1A3, and ALDH3A1 were cloned and recombinantly expressed from the pET-30 Xa/LIC vector. Protein purification was achieved by affinity chromatography on a nickel-charged chelating Sepharose Fast Flow 5-mL column (His Trap column, Cytiva), which specifically binds the protein due to its N-terminal (His)6 tag, using an ÄKTA FPLC system (Cytiva), as previously described.[55] Enzymes including the His tag were stored at −80 °C in 20 mM Tris/HCl and 0.5 M NaCl, pH 8.0, until use. Reaction buffers were as follows: ALDH1A1 was assayed in 50 mM HEPES, 0.5 mM EDTA, and 0.5 mM DTT, pH 8.0; ALDH1A3 was assayed in 50 mM HEPES, 30 mM MgCl2, and 5 mM DTT, pH 8.0; and ALDH3A1 was assayed in 50 mM Tris–HCl and 5 mM DTT, pH 8.0. Activity under standard conditions was measured fluorimetrically at 25 °C using a Cary Eclipse (Varian) fluorimeter to follow the purification procedure and to check the enzyme concentration before each kinetic experiment. The fluorescence of NADH was characterized at 460 nm with excitation at 340 nm, and 5 μM NAD(P)H was added as an internal standard to obtain the absolute reaction rates.[55] Standard activity was measured at saturating concentrations of substrate using 30 μM hexanal (ALDH1A1), 250 μM hexanal (ALDH1A3), or 250 μM 4-NBA (ALDH3A1). NAD^+ was 500 μM for ALDH1A1 and ALDH1A3, and NADP^+ was 1 mM for ALDH3A1.
According to their structure with a carbonyl group, compounds were tested for their substrate properties against ALDH1A1, ALDH1A3, and ALDH3A1. […] Results are expressed as the percentage of activity at 10 μM versus the activity at 10 μM of their standard substrate (hexanal or 4-NBA). Values are expressed as the mean ± SE.

PC3 = experiment: MTT chemosensitivity assay, PC3; type: cell-based, human; conditions: Homo sapiens, PC-3, 96 h exposure, ± SD, at least three independent experiments
Protocol: (§2) MTT (3-(4, 5-dimethyl-2-thiazolyl)-2, 5-diphenyl-2H-tetrazolium bromide) assay was used to determine cell viability.[64] Immortalized PCa cells (PC-3, Du-145, and LNCaP) were seeded in 96-well plates and allowed to adhere overnight at 37 °C, 5% CO2, and 100% humidity. […] After 96 h of exposure, 200 μL of MTT (Sigma) solution (0.5 mg/mL) was added to each well and incubated at 37 °C for 4 h. The formazan crystals were dissolved in DMSO (Sigma), and the absorbance was read using a microplate reader (Multiskan EX; Thermo Fisher Scientific) at 540 nm. Data analysis was performed using Microsoft Excel 2013 and GraphPad Prism software.

LNCaP = experiment: MTT chemosensitivity assay, LNCaP; type: cell-based, human; conditions: Homo sapiens, LNCaP, 96 h exposure, ± SD, at least three independent experiments
Protocol: as §2

DU145 = experiment: MTT chemosensitivity assay, DU145; type: cell-based, human; conditions: Homo sapiens, DU-145, 96 h exposure, ± SD, at least three independent experiments
Protocol: as §2

Human ALDH3A1 [3] = biological target: T3, Human ALDH3A1 (Homo sapiens, UniProt P30838); experiment: ALDH3A1 inhibition, IC50, Ki and type of inhibition; type: biochemical; conditions: measured at a saturating substrate concentration (4-NBA); mean ± SE
T3 construct: made in house
T3 sequence (P30838 1-453): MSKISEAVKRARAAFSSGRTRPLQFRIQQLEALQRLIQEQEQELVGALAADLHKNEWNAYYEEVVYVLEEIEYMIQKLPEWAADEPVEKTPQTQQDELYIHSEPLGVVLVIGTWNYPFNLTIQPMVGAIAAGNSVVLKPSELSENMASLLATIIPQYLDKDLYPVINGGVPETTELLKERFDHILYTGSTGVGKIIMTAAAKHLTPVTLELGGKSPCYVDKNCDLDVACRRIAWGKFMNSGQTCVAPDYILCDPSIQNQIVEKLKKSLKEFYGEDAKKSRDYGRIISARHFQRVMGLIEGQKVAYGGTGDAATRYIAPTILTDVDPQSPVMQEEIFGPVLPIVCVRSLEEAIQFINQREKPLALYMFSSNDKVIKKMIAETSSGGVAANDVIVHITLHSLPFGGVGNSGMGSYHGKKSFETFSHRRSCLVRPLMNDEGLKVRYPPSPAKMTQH

Human ALDH3A1 [4] = biological target: T3, Human ALDH3A1; experiment: as above; type: biochemical; conditions: 31 μM 4-NBA as substrate; mean ± SE
Protocol: as §1
In order to determine the IC50 values, reaction rates were determined at various concentrations of inhibitor at a fixed concentration of substrate. As substrates for ALDH1A1, ALDH1A3, and ALDH3A1, 5 μM hexanal, 6 μM hexanal, and 31 μM 4-NBA, respectively, were used. The IC50 values were calculated by nonlinear fitting of the obtained data to a sigmoidal plot using GraFit 5.0 (Erithacus software), with the following 4-parameter equation [drawing 2] , where y is the specific activity, x is the inhibitor concentration, background is the minimum y value, range is the fitted uninhibited value minus the background, and s is the slope factor. Values are expressed as the mean ± SE.
Activity assays to determine the type of inhibition and Ki value were performed using various substrate and inhibitor concentrations maintaining the same conditions as for the IC50 experiments and using GraFit 5.0 for data processing. The data of enzymatic activities at different inhibitor concentrations were fitted to the Michaelis–Menten equation to determine the values of Km and Vmax. Next, results were fitted to the equations for competitive, given by [drawing 3]; noncompetitive, given by [drawing 4]; uncompetitive, given by [drawing 5]; and mixed, given by [drawing 6] .[56] The type of inhibition was selected based on the lowest error value. Parameters were expressed as the mean ± SE.

[5] = test system: PC3, DU145 and LNCaP prostate cancer cell lines; experiment: MTT chemosensitivity assay, panel of three prostate cancer cell lines; type: cell-based; conditions: Homo sapiens, 96 h exposure, read-out: IC50 against three prostate cancer cell lines
Protocol: as §2

Human ALDH1A3 [6] = biological target: T1, Human ALDH1A3; experiment: Inhibition screening, single point at 10 μM, ALDH1A3; type: biochemical; conditions: 10 μM compound; hexanal as substrate (Figure S1)
Protocol: as §1, with “Reaction buffers were as follows: ALDH1A1 was assayed in 50 mM HEPES, 0.5 mM EDTA, and 0.5 mM DTT, pH 8.0; ALDH1A3 was assayed in 50 mM HEPES, 30 mM MgCl2, and 5 mM DTT, pH 8.0; and ALDH3A1 was assayed in 50 mM Tris–HCl and 5 mM DTT, pH 8.0.” left out, “NAD^+ was 500 μM for ALDH1A1 and ALDH1A3, and NADP^+ was 1 mM for ALDH3A1.” left out
All compounds tested were dissolved in DMSO and assayed at a final concentration of 1% (v/v) DMSO. […] Alternatively, the enzymatic activity was measured in a Varian Cary 400 UV–vis spectrophotometer, by monitoring the increase in the absorbance of NAD(P)H at 340 nm (ε = 6.22 mM^–1·cm^–1) or in a Cary Eclipse Varian fluorimeter, as described above. […]

IC50 (Human ALDH1A3 [2]) [µM]	ALDH1A1 substrate activity (Human ALDH1A1) [%]	IC50 (PC3) [µM]	IC50 (LNCaP) [µM]	IC50 (DU145) [µM]	IC50 (Human ALDH3A1 [3]) [µM]	IC50 (Human ALDH3A1 [4]) [µM]	IC50 [5] [µM]	Structure (SMILES)	IC50 [1] [µM]	remaining ALDH1A3 activity (Human ALDH1A3 [6]) [%]
								CC(=O)O[C@@]12CO[C@@H]1C[C@H](O)[C@@]1(C)C(=O)[C@H](O)C3=C(C)[C@@H](OC(=O)[C@H](O)[C@@H](NC(=O)OC(C)(C)C)c4ccccc4)C[C@@](O)([C@@H](OC(=O)c4ccccc4)[C@H]21)C3(C)C [docetaxel]	0.001	
0.55 ± 0.05	17.9	77 ± 17	10 ± 3	90 ± 27	13.7 ± 0.3			CCCN(CCC)c1ccc(C=O)cc1Cl [Compound 7, 3-Chloro-4-(dipropylamino)benzaldehyde]		
10.4 ± 1		> 200	> 200	> 200		5.67 ± 0.66	> 200	CCN(CC)c1ccc(C=O)cc1 [DEAB, 4-(Diethylamino)benzaldehyde, reference compound]		
								Cc1cc(C=O)ccc1N1CCN(C)CC1 [Compound 24, 3-Methyl-4-(4-methylpiperazin-1-yl)benzaldehyde]		45
